Test results taken from patent publication US8742078B2, “Antibacterial 4,6-substituted 6′, 6″ and 1 modified aminoglycoside analogs” (Isis Pharmaceuticals, Inc., priority 2008, dated 2014).

Legend:
P. aeruginosa 29248 = assay: MIC assay, P. aeruginosa 29248; format: cell-based; parameters: unit not given here; settings: range: complete growth inhibition at higher, viable cells at lower concentration; 20-24 hours at 37° C.
Description: (§1) The MIC assays are carried out in 150 μL volume in duplicate in 96-well clear flat-bottom plates. The bacterial suspension from an overnight culture growth in appropriate medium is added to a solution of test compound in 2.5% DMSO in water. Final bacterial inoculum is approximately 10^2-10^3 CFU/well. The percentage growth of the bacteria in test wells relative to that observed for control wells containing no compound is determined by measuring absorbance at 595 nm (A595) after 20-24 hours at 37° C. The MIC is determined as a range of concentration where complete inhibition of growth is observed at the higher concentration and bacterial cells are viable at the lower concentration. Both ampicillin and tetracycline are used as antibiotic positive controls in each screening assay. Both ampicillin and tetracycline are used as antibiotic-positive controls in each screening assay for S. pyogenes, E. coli imp-, E. coli, S. aureus, E. faecalis, K. pneumoniae and P. vulgaris. Ciprofloxacin is used as an antibiotic positive control in each screening assay for P. aeruginosa.

P. aeruginosa 27853 = assay: MIC assay, P. aeruginosa 27853; format: cell-based; parameters: unit not given here; settings: range: complete growth inhibition at higher, viable cells at lower concentration; 20-24 hours at 37° C.
Description: as §1

Compound | MIC P aeruginosa 29248 (P. aeruginosa 29248) | MIC P aeruginosa 27853 (P. aeruginosa 27853)
6″-deoxy-6″-phenethylamino-N-1-(4-amino-2-S-hydroxybutyryl)kanamycin A [IBIS00561977] | 5-10 | 10-20
NC[C@H]1O[C@H](O[C@H]2[C@H](O)[C@@H](O[C@H]3O[C@H](CO)[C@@H](O)[C@H](N)[C@H]3O)[C@H](N)C[C@@H]2N)[C@H](O)[C@@H](O)[C@@H]1O [IBIS00262400, Kanamycin A, reference compound] | 2.5-5 | 1.25-2.5
NCC[C@H](O)C(=O)N[C@@H]1C[C@H](N)[C@@H](O[C@H]2O[C@H](CN)[C@@H](O)[C@H](O)[C@H]2O)[C@H](O)[C@H]1O[C@H]1O[C@H](CO)[C@@H](O)[C@H](N)[C@H]1O [IBIS00404962, Amikacin, reference compound] | <0.625 | 1.25-2.5
NCC[C@H](O)C(=O)N[C@@H]1C[C@H](N)[C@@H](O[C@H]2O[C@H](CNCCc3ccccc3)[C@@H](O)[C@H](O)[C@H]2O)[C@H](O)[C@H]1O[C@H]1O[C@H](CO)[C@@H](O)[C@H](N)[C@H]1O [IBIS00561960, 6′-N-Phenethylamino-N-1-(4-amino-2-S-hydroxybutyryl)kanamycin A] | 5-10 | 2.5-5.0
CN(C)CC1OC(OC2C(N)CC(NC(=O)[C@@H](O)CCN)C(OC3OC(CO)C(O)C(N)C3O)C2O)C(O)C(O)C1O (stereo partly shown) [IBIS00561961, 6′-N,N-Dimethyl-N-1-(4-amino-2-S-hydroxybutyryl)kanamycin A] | >40 | 10-20
NCC[C@H](O)C(=O)N[C@@H]1C[C@H](N)[C@@H](O[C@H]2O[C@H](CNCCCc3ccccc3)[C@@H](O)[C@H](O)[C@H]2O)[C@H](O)[C@H]1O[C@H]1O[C@H](CO)[C@@H](O)[C@H](N)[C@H]1O [IBIS00561962, 6′-N-Phenpropylamino-N-1-(4-amino-2-S-hydroxybutyryl)kanamycin A] | 2.5-5.0 | 2.5-5.0
CC(C)CNCC1OC(OC2C(N)CC(NC(=O)[C@@H](O)CCN)C(OC3OC(CO)C(O)C(N)C3O)C2O)C(O)C(O)C1O (stereo partly shown) [IBIS00561963, 6′-N-Isobutyl-N-1-(4-amino-2-S-hydroxybutyryl)kanamycin A] | >40 | 10-20
CNC[C@H]1O[C@H](O[C@@H]2[C@@H](O)[C@H](O[C@H]3O[C@H](CN)[C@@H](O)[C@H](O)[C@H]3O)[C@@H](N)C[C@H]2NC(=O)[C@@H](O)CCN)[C@H](O)[C@@H](N)[C@@H]1O [IBIS00561974, 6″-deoxy-6″-methylamino-N-1-(4-amino-2-S-hydroxybutyryl)kanamycin A] | 0.625-1.25 | 2.5-5.0
CC(C)NC[C@H]1O[C@H](O[C@@H]2[C@@H](O)[C@H](O[C@H]3O[C@H](CN)[C@@H](O)[C@H](O)[C@H]3O)[C@@H](N)C[C@H]2NC(=O)[C@@H](O)CCN)[C@H](O)[C@@H](N)[C@@H]1O [IBIS00561975, 6″-deoxy-6″-isopropylamino-N-1-(4-amino-2-S-hydroxybutyryl)kanamycin A] | 10-20 | 10-20
NCC[C@H](O)C(=O)NC1CC(N)C(OC2OC(CN)C(O)C(O)C2O)C(O)C1OC1OC(CNC2CCCCC2)C(O)C(N)C1O (stereo partly shown) [IBIS00561976, 6″-deoxy-6″-cyclohexylamino-N-1-(4-amino-2-S-hydroxybutyryl)kanamycin A] | 5-10 | >40
[N-]=[N+]=NC[C@H]1O[C@H](O[C@@H]2[C@@H](O)[C@H](O[C@H]3O[C@H](CN)[C@@H](O)[C@H](O)[C@H]3O)[C@@H](N)C[C@H]2NC(=O)[C@@H](O)CCN)[C@H](O)[C@@H](N)[C@@H]1O [IBIS00561980, 6″-deoxy-6″-azido-N-1-(4-amino-2-S-hydroxybutyryl)kanamycin A] | 0.625-1.25 | 2.5-5.0
CCCNC[C@H]1O[C@H](O[C@@H]2[C@@H](O)[C@H](O[C@H]3O[C@H](CN)[C@@H](O)[C@H](O)[C@H]3O)[C@@H](N)C[C@H]2NC(=O)[C@@H](O)CCN)[C@H](O)[C@@H](N)[C@@H]1O [IBIS00561982, 6″-deoxy-6″-propylamino-N-1-(4-amino-2-S-hydroxybutyryl)kanamycin A] | 2.5-5.0 | 5.0-10.0
CN(C)CCNCC1OC(OC2C(NC(=O)C(O)CCN)CC(N)C(OC3OC(CN)C(O)C(O)C3O)C2O)C(O)C(N)C1O (stereo not shown) [IBIS00561983, 6″-deoxy-6″-dimethylaminoethylamino-N-1-(4-amino-2-S-hydroxybutyryl)kanamycin A] | 1.25-2.5 | 1.25-2.5
NCC[C@H](O)C(=O)N[C@@H]1C[C@H](N)[C@@H](O[C@H]2O[C@H](CN)[C@@H](O)[C@H](O)[C@H]2O)[C@H](O)[C@H]1O[C@H]1O[C@H](CNCCNCc2ccccc2)[C@@H](O)[C@H](N)[C@H]1O [IBIS00561984, 6″-deoxy-6″-benzylaminoethylamino-N-1-(4-amino-2-S-hydroxybutyryl)kanamycin A] | 5.0-10.0 | 5.0-10.0
